Results as given in patent publication US11883407B2, “Medicament for the treatment of chronic cough” (Shionogi & Co., Ltd., priority 2018, dated 2024).

Columns and labels:
clinical = details: human, plasma, oral
[1] = tested on: patients with refractory/unexplained chronic cough; experiment: Phase II double-blind cross-over comparative study: cough frequency and Leicester Cough Questionnaire; format: in vivo, human
Experimental: A Phase II double-blind cross-over comparative study was conducted in patients with refractory/unexplained chronic cough.
In patients with refractory/unexplained chronic cough, the placebo-adjusted change from baseline in the number of coughs per hour during daytime (7 am to 7:59 pm, which means right before 8:00 pm) after 2 weeks of administration of the compound represented by Formula (I), and its significance were evaluated. Similarly, the placebo-adjusted change from baseline in the number of coughs per hour in 24 hours after administration of the compound represented by Formula (I) and its significance were also evaluated.
The placebo-adjusted change is defined by the following equation.
(§1) The trial was conducted as a placebo-controlled, multicenter, randomized, double-blind, cross-over comparative study. The study consists of a screening phase (1 to 4 weeks), a first treatment phase (15 days), a drug holiday (2 to 3 weeks), a second treatment phase (15 days) and a follow-up phase (1 week).
(§2) Subjects (20 females, 11 males, mean age of 50.0 years) were randomly assigned to either the group receiving the compound according to Formula (I) first or the group receiving the placebo first. The subjects in the group receiving the compound according to Formula (I) first received orally tablets containing 150 mg of the compound according to Formula (I) (50 mg, 3 tablets), and the subjects in the group receiving the placebo first received orally placebo tablets (3 tablets), from the day following the first treatment phase once daily in the morning for 2 weeks.
(For the number of coughs per hour during daytime in each of the first and second treatment phases, the mixed effect model was applied, with the common logarithms of the ratio to the baseline after 2 weeks of administration as the responses, the investigational drugs, the administration groups (group receiving the compound represented by Formula (I) first and group receiving the placebo first), and the phases as the fixed effects, the individuals as the random effects, and the common logarithms of the number of coughs per hour at baseline as the covariates.) (Results) A comparison (full analysis population) of the change in the number of coughs per hour in 24 hours is shown in Table 4.
(For the number of coughs per hour in 24 hours in each of the first and second treatment phases, the mixed effect model was applied, with the common logarithms of the ratio to the baseline after 2 weeks of administration as the responses, the investigational drugs, administration groups (group receiving the compound represented by Formula (I) first and group receiving the placebo first), and phases as the fixed effects, the individuals as the random effects, and the common logarithms of the number of coughs per hour at baseline as the covariates.) (Results) A comparison (full analysis population) of the total change in the sum of the three domains of the Leicester Cough Questionnaire [Japanese version] is shown in Table 5.
(For the change from baseline in the total score of the three domains of the Leicester Cough Questionnaire [Japanese version] at the end or discontinuation of each of the first and second treatment phases, the mixed effect model was applied, with the changes from the baseline as the responses, the investigational drugs, phases, and administration groups (group receiving the compound represented by Formula (I) first and group receiving the placebo first) as the fixed effects, the individuals as the random effects, and the total scores of the three domains of the Leicester Cough Questionnaire [Japanese version] at baseline as the covariates.)

[2] = Phase I single dose and food effect study (safety, tolerability)
[3] = Phase I repeat dose study (safety, tolerability); format: in vivo, human
[4] = Phase II clinical trial: treatment-related and taste-related adverse events; format: in vivo, human
Experimental: as §1, §2
Next, the incidence of taste-related adverse events and side effects observed in the Phase II clinical trial is shown in Table 6.
Here, the incidence of taste-related adverse events in Test Example 6 was examined. In this study, the compound represented by Formula (I) and the corresponding placebo were used as the investigational drugs. As the study design, a cross-over design consisting of two treatment phases was used. Each subject was assigned to either the treatment group taking 150 mg per day of the compound represented by Formula (I) during the first treatment phase and the placebo during the second treatment phase, or the treatment group taking the placebo during the first treatment phase and 150 mg per day of the compound represented by Formula (I) during the second treatment phase. The safety analysis population in this study was 31 subjects, all of whom were taking the compound represented by Formula (I) and the placebo. Among them, dysgeusia occurred in 1 subject (1/31, 3.2%) and hypogeusia occurred in another subject (1/31, 3.2%) when taking the compound represented by Formula (I). […] Therefore, taste-related adverse events occurred in 2 subjects (2/31, 6.5%). No taste-related adverse events were observed when taking the placebo.
Based on the above results, for the proportion of subjects who experienced any of the taste-related adverse events, the study design of each study was taken into account, and as the difference between each investigational drug and placebo, the mean of differences of incidence in the same subject between the treatments and the two-sided 95% confidence interval thereof were calculated for Test Example 6, and the difference of incidence between the Gefapixant 50 mg treatment group and the placebo treatment group and the two-sided 95% confidence interval thereof were calculated for the study MK-7264-012.

[5] = 150 mg once daily, 2 weeks, from baseline, full analysis population
[6] = 150 mg once daily, 2 weeks, full analysis population

Which concentration at 24 h (clinical; 3 mg) does the source give for `C[C@@H](Cn1c(=O)[nH]/c(=N\c2ccc(Oc3ccccn3)cc2)n(Cc2ccc(Cl)cc2)c1=O)C(=O)O` [compound represented by Formula (I), (2S)-3-(3-[(4-Chlorophenyl)methyl]-2,6-dioxo-4-{[4-(pyridin-2-yloxy)phenyl]amino}-3,6-dihydro-1,3,5-triazin-1(2H)-yl)-2-methyl-propanoic acid] here?
Its concentration at 24 h is 15.2 ng/mL.

And the concentration at 24 h (clinical; 10 mg)?
The concentration at 24 h was 50.7 ng/mL.

And the concentration at 24 h (clinical; 30 mg)?
Its concentration at 24 h is 134 ng/mL.

And the concentration at 24 h (clinical; 100 mg)?
Its concentration at 24 h is 424 ng/mL.

And the concentration at 24 h (clinical; 300 mg)?
Its concentration at 24 h is 1840 ng/mL.

And the concentration at 24 h (clinical; 450 mg)?
The concentration at 24 h was 2680 ng/mL.

What about the “Drug differences, total score of the three domains of the Leicester Cough Questionnaire” value ([1]; 150 mg once daily vs placebo) of the same compound?
The value was 1.40.

And the “difference between investigational drug groups in total score of the three domains of the Leicester Cough Questionnaire” value ([1]; 150 mg once daily vs placebo, significant difference)?
The value was 1.40 points.

What about the “placebo-adjusted rate of decrease in the number of coughs per hour during daytime” value ([1]; 150 mg once daily, 2 weeks) of the same compound?
The value was 31.6%.

And the “Estimated amount of change, total score of the three domains of the Leicester Cough Questionnaire” value ([1]; 150 mg once daily, 2 weeks, from baseline)?
Its value is 2.46.

What about the “Estimated rate of change in number of coughs per hour during daytime” value [1, 5] of the same compound?
The value was −54.1%.

What about the “Estimated rate of change in number of coughs per hour in 24 hours” value [1, 5] of the same compound?
The value was −52.6%.

And the “Rate of change adjusted by placebo, number of coughs per hour during daytime” value [1, 6]?
The value was −31.6%.

And the “Rate of change adjusted by placebo, number of coughs per hour in 24 hours” value [1, 6]?
Its value is −30.9%.

And the “placebo-adjusted rate of decrease in the number of coughs per hour in 24 hours” value ([1]; 150 mg once daily, 2 weeks, significant difference)?
The value was 30.9%.

What about the “deaths, serious adverse events, adverse events leading to discontinuation of administration” value ([2]; Part A and Part B, healthy adult males) of the same compound?
The value was “no deaths, serious adverse events, or adverse events leading to discontinuation of administration”.

What about the “taste-related adverse events or side effects” value ([2]; all Phase I studies conducted (single dose/food effect and repeat dose)) of the same compound?
Its value is “No taste-related adverse events or side effects were observed”.

What about the “dysgeusia or any taste-related disorder as adverse event” value ([2]; single dose 3, 10, 30, 100, 300 and 450 mg groups) of the same compound?
The value was “no dysgeusia or any taste-related disorder was observed”.

And the “dysgeusia or any taste-related disorder” value ([3]; 150 and 300 mg once daily for 2 weeks)?
The value was “no dysgeusia or any taste-related disorder was observed”.

What about the “deaths, serious adverse events, adverse events leading to discontinuation of administration” value ([3]; any administration group, healthy adult males) of the same compound?
Its value is “no deaths, serious adverse events or adverse events leading to discontinuation of administration”.

And the “Any Treatment-related AEs, number of events” value ([4]; 150 mg once daily, N = 31)?
The value was “(4)”.

And the “Drug-induced liver injury, number of events” value ([4]; 150 mg once daily, N = 31)?
Its value is “(1)”.

And the “Drug-induced liver injury, patients” value ([4]; 150 mg once daily, N = 31)?
Its value is 1 (3.2) n (%).

And the “Dysgeusia, number of events” value ([4]; 150 mg once daily, N = 31)?
Its value is “(1)”.

And the “Dysgeusia, patients” value ([4]; 150 mg once daily, N = 31)?
Its value is 1 (3.2) n (%).

What about the “Gastrointestinal disorders, number of events” value ([4]; 150 mg once daily, N = 31) of the same compound?
The value was “(1)”.

And the “Gastrointestinal disorders, patients” value ([4]; 150 mg once daily, N = 31)?
Its value is 1 (3.2) n (%).

What about the “Hepatobiliary disorders, number of events” value ([4]; 150 mg once daily, N = 31) of the same compound?
The value was “(1)”.

And the “Hepatobiliary disorders, patients” value ([4]; 150 mg once daily, N = 31)?
Its value is 1 (3.2) n (%).

And the “Hypoaesthesia oral, number of events” value ([4]; 150 mg once daily, N = 31)?
The value was “(1)”.

And the “Hypoaesthesia oral, patients” value ([4]; 150 mg once daily, N = 31)?
The value was 1 (3.2) n (%).

And the “Hypogeusia, number of events” value ([4]; 150 mg once daily, N = 31)?
The value was “(1)”.

What about the “Nervous system disorders, number of events” value ([4]; 150 mg once daily, N = 31) of the same compound?
The value was “(2)”.

What about the “Nervous system disorders, patients” value ([4]; 150 mg once daily, N = 31) of the same compound?
The value was 2 (6.5) n (%).

And the “Patients with any Treatment-related AEs” value ([4]; 150 mg once daily, N = 31)?
Its value is 4 (12.9) n (%).

And the “hypogeusia, patients” value ([4]; 150 mg once daily, N = 31)?
Its value is 1 (3.2) n (%).

What about the “severity of taste-related adverse events” value ([4]; 150 mg per day) of the same compound?
The value was “both were mild”.

And the ageusia ([4]; 150 mg per day, 31 subjects)?
Its ageusia is “No ageusia was observed”.

What about the “dysgeusia (taste change), patients” value ([4]; 150 mg per day, 31 subjects) of the same compound?
The value was 3.2%.

What about the “hypogeusia, patients” value ([4]; 150 mg per day, 31 subjects) of the same compound?
The value was 3.2%.

What about the “number of subjects with taste-related adverse events” value ([4]; 150 mg per day, 31 subjects) of the same compound?
Its value is 2 subjects.

And the “taste-related adverse events, patients” value ([4]; 150 mg per day, 31 subjects)?
The value was 6.5%.

What about the “Difference of incidence of any of the taste-related adverse events (drug − placebo)” value ([4]; 150 mg, mean difference between treatments in the same subject) of the same compound?
Its value is 6.5%.
